From publication PMC11729419, “Thiol-Reactive or Redox-Active: Revising a Repurposing Screen Led to a New Invalidation Pipeline and Identified a True Noncovalent Inhibitor Against Papain-like Protease from SARS-CoV-2” (ACS Pharmacology & Translational Science, 2024)
Where a name gives a salt, the structure may show the parent alone. Read-outs that look alike come from different tables or passages of the source. * marks the point of attachment. AMC = Cc1cc(=O)oc2cc(N*)ccc12; Cbz = O=C(OCc1ccccc1)*

Tests used:
[1] = biological target: T1, SARS-CoV-2 PLpro-NAB (Severe acute respiratory syndrome coronavirus 2, UniProt P0DTD1); assay: biochemical; conditions: for Inhibitory activity on retest in 1 mM L-cysteine: 50% inhibition at 20 μM
[2] = biological target: T1, SARS-CoV-2 PLpro-NAB; assay type: biochemical
[3] = Table S1, 20 µM, DTT buffer, average (SD)
[4] = Table S1, 20 µM, L-cysteine buffer, average (SD)
[5] = Table S1, DTT buffer, read-out: HP PLpro-NAB SARS-CoV-2 IC50 [µM] triplicates DTT BUFFER
[6] = Table S1, L-cysteine buffer, read-out: HP PLpro-NAB SARS-CoV-2 IC50 [µM] duplicates L-CYS BUFFER
[7] = Table S1, 20 µM, DTT buffer, average (SD), read-out: HC PLpro-NAB SARS-CoV-2 inhibition [%] 20 µM triplicates DTT BUFFER
[8] = Table S1, 20 µM, L-cysteine buffer, average (SD), read-out: HP PLpro-NAB SARS-CoV-2 inhibition [%] 20 µM triplicates L-CYS BUFFER
[9] = hit confirmation, 20 μM, 1 mM DTT buffer, average (SD), 20 μM PR619 = 100%, DMSO = 0%
[10] = hit profiling, 20 μM, 1 mM L-cys buffer, average (SD), 20 μM PR619 = 100%
[11] = read-out: HP PLpro-NAB IC50 [μM] duplicates 1 mM L-cys buffer, hit profiling, 1 mM L-cys buffer
[12] = read-out: HP PLpro-NAB IC50 [μM] triplicates 1 mM DTT buffer, hit profiling, 1 mM DTT buffer

Molecule | HC PLpro-NAB SARS-CoV-2 inhibition [%] 20 µM triplicates DTT BUFFER [1, 3] | HP PLpro-NAB SARS-CoV-2 inhibition [%] 20 µM triplicates L-CYS BUFFER [1, 4] | IC50 [1, 5] [µM] | IC50 [1, 6] [µM] | further results
NC(Cc1cc(O)c(O)cc1O)C(=O)O (racemic) [6-Hydroxy-DL-DOPA] | 81.47 (1.21) % | 4.81 (4.61) % | > 20 | > 20 | 
COCCn1c2c([n+](Cc3cnccn3)c1C)C(=O)c1ccccc1C2=O [YM-155] |  |  | 17.9 | > 20 | inhibition at 20 µM [1, 7]: 139%; inhibition at 20 µM [1, 8]: -5.61%
Chicago-Sky-Blue-6b | 51.02 (1.78) % | 3.64 (5.37) % | > 20 | > 20 | 
Cn1cccc1/C=C1\C(=O)NC(=O)c2ccccc21 [BYK-204165] | 137.58 (2.88) % | 7.10 (11.9) % | 6.17 | > 20 | 
O=c1c(O)cccc2cc(O)c(O)c(O)c12 [purpurogallin] |  |  |  |  | IC50 ([1]; HP PLpro-NAB IC50 [μM] duplicates 1 mM L-cys buffer, hit profiling, 1 mM L-cys buffer): 1.03 µM; IC50 ([1]; HP PLpro-NAB IC50 [μM] triplicates 1 mM DTT buffer, hit profiling, 1 mM DTT buffer): > 20 µM
O=C1C=CC(=O)c2c(O)cccc21 [Juglone] |  |  | > 20 | > 20 | inhibition at 20 µM [1, 7]: 83.7%; inhibition at 20 µM [1, 8]: -14.8%
Cbz-LRGG-{AMC} |  |  |  |  | Km [2]: 45.2 µM; Vmax [2]: 173 041 /min
CC[N+](C)(CC)CCC[n+]1c(-c2ccccc2)c2cc(N)ccc2c2ccc(N)cc21.[I-].[I-] [Propidium-Iodide] | 135.55 (3.03) % | 14.90 (7.41) % | 0.24 | > 20 | 
Cc1cc(-c2ccc(/C=C3/SC(=Nc4ccc(Cl)c(C(=O)O)c4)NC3=O)o2)c([N+](=O)[O-])cc1C [PT 1] | 87.07 (2.59) % | -36.09 (5.10) % | 9.32 | > 20 | 
Ro-08-2750 | 119.29 (1.83) % | -33.99 (8.82) % | 0.4 | > 20 | 
O=C(Nc1ccccc1-c1cn2c(CN3CCNCC3)csc2n1)c1cnc2ccccc2n1 [SRT 1720] |  |  |  |  | Inhibitory activity on retest in 1 mM L-cysteine [1]: retained their inhibitory activity; HC PLpro-NAB inhibition [%] 20 μM triplicates 1 mM DTT buffer [1, 9]: 109.60 (16.57) %; HP PLpro-NAB inhibition [%] 20 μM triplicates 1 mM L-cys buffer [1, 10]: 169.11 (0.11) %; IC50 [1, 11]: 0.82 µM; IC50 [1, 12]: > 20 µM
Cc1cccc2c3c(ccc12)C1=C(C(=O)C3=O)[C@@H](C)CO1 [Dihydrotanshinone I] |  |  | 0.92 | > 20 | inhibition at 20 µM [1, 7]: 80.7%; inhibition at 20 µM [1, 8]: -176%
Cc1nc2c(=O)n(C)c(=O)nc-2n(C)n1 [3-Methyl Toxoflavin] | 181.38 (6.76) % | -26.71 (3.86) % | 0.074 | > 20 | 
C[n+]1c2cc(N)ccc2cc2ccc(N)cc21.[Cl-] [Acriflavinium Hydrochloride] | 27.57 (6.10) % | -99.55 (4.20) % | 12.4 | > 20 | 
CC(C)Nc1cccnc1N1CCN(C(=O)c2cc3cc(NS(C)(=O)=O)ccc3[nH]2)CC1 [Delavirdine (mesylate), Delavirdine] |  |  |  |  | IC50 ([1]; HP PLpro-NAB SARS-CoV-2 IC50 [µM] duplicates L-CYS BUFFER): > 20 µM; IC50 ([1]; HP PLpro-NAB SARS-CoV-2 IC50 [µM] triplicates DTT BUFFER): > 20 µM
C[C@H]1COC2=C1C(=O)C(=O)c1c2ccc2c1CCCC2(C)C [Cryptotanshinone] |  |  |  |  | inhibition at 20 µM [1, 7]: 40.7%; inhibition at 20 µM [1, 8]: -71.4%
CC1(C)CCC2=C(O1)c1ccccc1C(=O)C2=O [Beta-Lapachone] |  |  | 4.71 | > 20 | inhibition at 20 µM [1, 7]: 175%; inhibition at 20 µM [1, 8]: -37.4%

Molecule | HC PLpro-NAB SARS-CoV-2 inhibition [%] 20 µM triplicates DTT BUFFER [1, 3] | HP PLpro-NAB SARS-CoV-2 inhibition [%] 20 µM triplicates L-CYS BUFFER [1, 4] | IC50 [1, 5] [µM] | IC50 [1, 6] [µM] | further results
Ryuvidine | 159.90 (1.27) % | -33.69 (4.70) % | 0.26 | > 20 | 
Nc1ccc(O)c2ncccc12 [PD119507] | 186.40 (4.35) % | -16.42 (5.8) % | 0.065 | > 20 | 
O=c1ccc2[n+]([O-])c3ccc(O)cc3oc-2c1 [Resazurin (sodium salt), Resazurin] |  |  | > 20 | > 20 | 
CCOC(=O)C1=C(C)N=c2sc(=Cc3ccc(OCC(=O)O)cc3)c(=O)n2C1c1ccc(SC)cc1 (stereo not drawn) [ML120] | 82.78 (2.58) % | -56.07 (10.54) % | 3.14 | > 20 | 
CN(C)CCNc1nc2cc(O)ccc2c2c1C(=O)c1ccccc1-2.Cl.Cl [TAS-103 (dihydrochloride)] | 154.91 (1.47) % | 17.75 (9.12) % | 5.94 | > 20 | 
Oc1c(Cl)cc(Cl)c(Cl)c1Cc1c(O)c(Cl)cc(Cl)c1Cl [Hexachlorophene] |  |  |  |  | IC50 ([1]; HP PLpro-NAB SARS-CoV-2 IC50 [µM] duplicates L-CYS BUFFER, Table S1, L-cysteine buffer): > 20 µM; IC50 ([1]; HP PLpro-NAB SARS-CoV-2 IC50 [µM] triplicates DTT BUFFER, Table S1, DTT buffer): > 20 µM; inhibition at 20 µM ([1]; read-out: HC PLpro-NAB SARS-CoV-2 inhibition [%] 20 µM triplicates DTT BUFFER): 109%; inhibition at 20 µM ([1]; read-out: HP PLpro-NAB SARS-CoV-2 inhibition [%] 20 µM triplicates L-CYS BUFFER): -18.3%
CC1(C)CCC2=C(O1)C(=O)c1ccccc1C2=O [Alpha Lapachone] | 146.26 (3.11) % | -6.97 (8.44) % | 4.43 | > 20 | 
Cc1cc(-c2ccc(/N=N/c3ccc4c(S(=O)(=O)O)cc(S(=O)(=O)O)c(N)c4c3O)c(C)c2)ccc1/N=N/c1ccc2c(S(=O)(=O)O)cc(S(=O)(=O)O)c(N)c2c1O [Evans Blue] |  |  | 8.68 | > 20 | inhibition at 20 µM [1, 7]: 126%; inhibition at 20 µM [1, 8]: -67.8%
SF1670 | 183.62 (4.27) % | -32.73 (4.18) % | 0.25 | > 20 | 
CC1(C)C(=O)N=C2C1=C(O)C(=O)c1ccccc12 [BVT-948] | 154.88 (0.27) % | -16.22 (16.3) % | 0.39 | > 20 | 
CC[n+]1c(-c2ccccc2)c2cc(N)ccc2c2ccc(N)cc21 [Homidium Bromide] |  |  | 13.7 | > 20 | inhibition at 20 µM [1, 7]: 149%; inhibition at 20 µM [1, 8]: 18.3%
Bacitracin [Bacitracin (Zinc)] | 67.28 (8.42) % | 6.99 (8.69) % | 10.2 | > 20 | 
O=C1C(=O)c2ccccc2-c2ccccc21 [9,10-Phenanthrenequinone] |  |  |  | > 20 | inhibition at 20 µM [1, 8]: -40.8%
N#CSc1cc(SC#N)c(N)nc1N [PR-619] |  |  |  |  | Inhibition in L-cysteine buffer versus DTT buffer (dose-response) ([1]; 1 mM L-cysteine vs 1 mM DTT): did not show variations in inhibition potency or thermal stability; Inhibitory activity on retest in 1 mM L-cysteine [1]: retained their inhibitory activity; HC PLpro-NAB inhibition [%] 20 μM triplicates 1 mM DTT buffer [1, 9]: 101.31 (1.54) %; HP PLpro-NAB inhibition [%] 20 μM triplicates 1 mM L-cys buffer [1, 10]: 106.60 (1.05) %; IC50 [1, 11]: 3.7 µM; IC50 [1, 12]: 1.39 µM
COc1cc([C@@H]2c3cc4c(cc3[C@@H](O[C@@H]3O[C@@H]5CO[C@@H](C)O[C@H]5[C@H](O)[C@H]3O)[C@H]3COC(=O)[C@H]23)OCO4)cc(OC)c1O [Etoposide] |  |  | > 20 | > 20 | 
COc1cccc2c(NCc3ccccc3)nc(-n3c(N)nc4ccccc43)nc12 [ML240] | 93.76 (13.43) % | -11.93 (4.14) % | > 20 | > 20 | 
O=C(O)c1cc(O)c2c(c1)[C@H]([C@H]1c3cc(C(=O)O)cc(O)c3C(=O)c3c(O[C@@H]4O[C@H](CO)[C@@H](O)[C@H](O)[C@H]4O)cccc31)c1cccc(O[C@@H]3O[C@H](CO)[C@@H](O)[C@H](O)[C@H]3O)c1C2=O [sennoside A] |  |  |  |  | inhibition at 20 µM ([1]; hit confirmation, 20 μM, 1 mM DTT buffer, average (SD), 20 μM PR619 = 100%, DMSO = 0%, read-out: HC PLpro-NAB inhibition [%] 20 μM triplicates 1 mM DTT buffer): 160%; inhibition at 20 µM ([1]; hit profiling, 20 μM, 1 mM L-cys buffer, average (SD), 20 μM PR619 = 100%, read-out: HP PLpro-NAB inhibition [%] 20 μM triplicates 1 mM L-cys buffer): 149%
